Results reported in US12201638B2, “Pharmaceutical compositions comprising (2S)-n-{(1S)-1-cyano-2-[4-(3-methyl-2-oxo-2,3-dihydro-1,3-benzoxazol-5-yl)phenyl]ethyl}-1,4-oxazepane-2-carboxamide” (ASTRAZENECA AB, priority 2018, dated 2025).

Test: Excipient compatibility: accelerated stability of Compound A tablets (degradation by chromatography)
Format: physicochemical
Details: stored at 50/75 for 45 days
Procedure: Excipient compatibility experiments were designed as linear D-optimal designs with qualitative factors of two or more levels. The formulations used in these experiments can be directly compressed into tablets. For dry processing, three factors were evaluated, namely binary filler combination, choice of disintegrant and choice of lubricant. In the experimental design shown below (see Table 3) the effect of an HPMC-based film coat as well as the addition of colloidal silicon dioxide was evaluated using repeat corners.
Pure drug substance was included as a reference in all conditions.
This is shown in FIG. 2, where tablets stored at 50/75 for 45 days are compared with neat drug substance stored in identical conditions as well as a freshly prepared standard solution from the same drug substance batch. The chromatograms are stacked in order of degradation (and slightly shifted for clarity).
However, the general trends from the other conditions could still be seen. […] Based on this, 70/XX data was omitted from the shelf life prediction model.
Five different peaks were monitored at five different conditions. However, as discussed above, the 70/XX condition was excluded based on a probable conversion to Form B. Overall, Compound A in tablets containing glyceryl behenate appears to degrade to a slightly lesser degree than magnesium stearate.

Degradation (overlaid chromatograms, FIG. 2): almost no difference
Compound: Cn1c(=O)oc2ccc(-c3ccc(C[C@@H](C#N)NC(=O)[C@@H]4CNCCCO4)cc3)cc21 [Compound A, (2S)-N-{(1S)-1-cyano-2-[4-(3-methyl-2-oxo-2,3-dihydro-1,3-benzoxazol-5-yl)phenyl]ethyl}-1,4-oxazepane-2-carboxamide]
